Reference: US20220324898A1, “PROSTATE SPECIFIC MEMBRANE ANTIGEN (PSMA) LIGANDS COMPRISING AN AMYLASE CLEAVABLE LINKER” (Deutsches Krebsforschungszentrum, priority 2019, published 2022)

Tests used:
[1] = test system: LNCaP cells; assay: Internalization and cell surface binding of 177Lu-labeled PSMA ligands; assay type: cell-based; details: 30 nM 177Lu-labeled ligand, 45 min, 37° C., blocking with 2-PMPA
Procedure: 10^5 LNCaP cells were seeded in poly-L-lysine coated 24-well cell culture plates. 24 h later, wells were washed and the cells incubated with a 30 nM solution of ^177Lu radiolabeled PSMA-ligand (PSMA-617 or PSMA-MT) in 250 μL medium, for 45 min at 37° C. In the blocking experiments, incubation was performed in the presence of excess of 2-PMPA to assess competition for PSMA. Following incubation, PSMA-ligand containing medium was removed by washing 3 times with 1 mL of ice-cold PBS. Cells were subsequently incubated twice with 0.5 mL glycine-HCl in PBS (50 mM, pH=2.8) for 5 min to extract the cell membrane associated fraction. The cells were then washed with 1 mL of ice-cold PBS, and lysed with 0.5 mL 0.3 M NaOH. The membrane bound and lysed (internalized) fractions were assessed for radioactivity levels using a gamma counter (Packard Cobra II, GMI, Minn., USA). Cell uptake was calculated as percent of the initially added radioactivity detected in 10^5 cells [% IA/10^5 cells].

[2] = Organ distribution of 177Lu-labeled PSMA ligands in LNCaP tumor-bearing mice; assay type: in vivo, BALB/c nu/nu mice; details: 60 pmol via tail vein, mean, n=3; for Organ distribution: Tumor: LNCaP tumor
Procedure: 5×10^6 LNCaP cells were subcutaneously inoculated into the right flank of male 6-week-old BALB/c nu/nu mice (Charles River Laboratories). Tumors were grown for ˜3 weeks, to ˜200 mm^3. 60 pmoles of ^177Lu labelled PSMA-ligands were dissolved in 100 μL 0.9% NaCl and injected per mouse. The solution was injected via the tail vein, followed by sacrifice at various time points. Organs of interest (blood, heart, lung, spleen, liver, kidney, muscle, small intestine, brain, tumor, and femur) were dissected, blotted dry, and weighed. The radioactivity was measured using a gamma counter and calculated as % ID/g, and corrected for ^177Lu decay.
The results are given in the following tables (mean+standard deviation; per time point n=3 animals) (see also FIG. 4): […]

[3] = test system: prostate cancer; details: cited from earlier work
[4] = biological target: T1, PSMA (Homo sapiens, UniProt Q04609); assay: Competitive cell binding against 68Ga-labeled PSMA-10 radioligand; details: non-labeled compound vs 0.8 nM 68Ga-PSMA-10; first preliminary experiments; read-out: IC50 (50% inhibitory concentration), competitive cell binding
T1 construct: endogenous in cells
T1 sequence (Q04609 whole entry): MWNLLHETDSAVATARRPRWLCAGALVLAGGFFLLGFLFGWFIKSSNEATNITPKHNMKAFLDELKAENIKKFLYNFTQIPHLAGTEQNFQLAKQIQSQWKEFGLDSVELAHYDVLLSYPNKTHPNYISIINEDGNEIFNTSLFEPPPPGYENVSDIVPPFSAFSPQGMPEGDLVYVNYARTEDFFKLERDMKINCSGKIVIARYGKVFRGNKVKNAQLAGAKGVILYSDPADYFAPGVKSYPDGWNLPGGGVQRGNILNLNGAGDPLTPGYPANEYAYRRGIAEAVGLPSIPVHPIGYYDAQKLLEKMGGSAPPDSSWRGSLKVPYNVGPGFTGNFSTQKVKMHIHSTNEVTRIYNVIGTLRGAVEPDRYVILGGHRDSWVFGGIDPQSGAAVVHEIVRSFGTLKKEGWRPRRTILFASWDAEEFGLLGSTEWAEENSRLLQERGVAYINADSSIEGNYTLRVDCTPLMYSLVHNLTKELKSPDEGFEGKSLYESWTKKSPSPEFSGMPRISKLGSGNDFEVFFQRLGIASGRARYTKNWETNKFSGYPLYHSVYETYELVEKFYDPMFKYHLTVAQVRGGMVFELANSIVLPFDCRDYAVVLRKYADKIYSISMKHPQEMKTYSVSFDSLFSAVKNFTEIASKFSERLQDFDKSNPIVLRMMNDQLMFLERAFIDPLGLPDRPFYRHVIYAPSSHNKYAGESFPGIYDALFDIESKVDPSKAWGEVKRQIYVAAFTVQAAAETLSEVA
Procedure: For the determination of competitive cell binding the cells (10^5 per well) were incubated with a 0.8 nM solution of ^68Ga-labeled radioligand [Glu-urea-Lys(Ahx)]2-HBED-CC (PSMA-10, precursor ordered from ABX, Radeberg, Germany) in the presence of 12 different concentrations of analyte (non-labeled compounds, 0-5000 nM, 100 μL/well). After incubation, the mixture was removed and the wells were washed 3 times with PBS using a multiscreen vacuum manifold (Millipore, Billerica, Mass.). Cell-bound radioactivity was measured using a gamma counter (Packard Cobra II, GMI, Minn., USA). The 50% inhibitory concentration (IC50) values were calculated by fitting the data using a nonlinear regression algorithm (GraphPad Software).

[5] = biological target: T2, α-amylase (isolated from the human salivary gland) (Homo sapiens, UniProt P0DUB6); assay: Cleavability of the linker by α-amylase, monitored by analytical HPLC; assay type: in vitro ADME; details: in vitro, after 177Lu labeling according to example 1A, analytical HPLC at different times
T2 construct: incubated with α-amylase (isolated from the human salivary gland, Sigma-Aldrich); purchased Sigma-Aldrich; host or cells: human salivary gland (natural source)
T2 sequence (P0DUB6 16-511): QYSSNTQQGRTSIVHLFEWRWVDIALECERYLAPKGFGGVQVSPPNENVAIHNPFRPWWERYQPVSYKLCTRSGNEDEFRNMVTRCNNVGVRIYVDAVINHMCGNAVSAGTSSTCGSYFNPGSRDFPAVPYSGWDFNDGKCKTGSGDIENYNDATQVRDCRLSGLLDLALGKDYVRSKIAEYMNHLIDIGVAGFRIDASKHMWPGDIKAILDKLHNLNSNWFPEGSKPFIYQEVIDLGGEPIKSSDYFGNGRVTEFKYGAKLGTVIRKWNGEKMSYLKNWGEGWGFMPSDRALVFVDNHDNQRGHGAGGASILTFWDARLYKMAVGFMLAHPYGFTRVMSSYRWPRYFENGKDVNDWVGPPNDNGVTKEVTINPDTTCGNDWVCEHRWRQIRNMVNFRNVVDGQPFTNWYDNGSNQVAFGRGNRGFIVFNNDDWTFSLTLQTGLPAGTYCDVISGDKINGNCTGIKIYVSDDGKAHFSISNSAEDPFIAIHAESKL
Procedure: FIG. 1. The time-dependent cleavability of the compound PSMA-MT by α-amylase is shown. ^177Lu-PSMA-MT was incubated with an α-amylase (isolated from the human salivary gland) and enzymatic cleavage was monitored at different times by analytical HPLC.
The radiolabelled compound was incubated with α-amylase (isolated from the human salivary gland, Sigma-Aldrich) according to instructions of the manufacturer and enzymatic cleavage was monitored at different times by analytical HPLC (see FIG. 1).

[6] = biological target: T3, α-Amylase (Homo sapiens, UniProt P0DUB6); assay: α-Amylase digestion of PSMA-MT, analysed by RP-HPLC and MALDI-TOF; assay type: in vitro ADME
T3 sequence (P0DUB6 16-511): T2 sequence (P0DUB6 16-511)
Procedure: 10 μl of a solution of PSMA-MT in ultrapure water with a concentration of 1 mM were analyzed by analytic RP-HPLC and MALDI-TOF before the digestion. For digestion 10 μl of α-Amylase (1 U/μl in H2O ) were added to 10 μl of a solution of PSMA-MT in ultrapure water with a concentration of 1 mM and incubated at RT for 1 h. The solution was afterwards analyzed with analytic RP-HPLC and MALDI-TOF to evaluate the reaction.
To investigate the exact digest position of PSMA-MT the different fragments found in the MALDI-TOF after the digest were compared. Two main peaks occurred at 902 g/mol and at 989 g/mol. […] Fragments corresponding to cleavage at cleavage site B could not be detected in the MALDI-TOF.

Row | SMILES | Specifically cell surface bound (cell uptake), mean [1] | Specifically internalized (cell uptake), mean [1] | Organ distribution: Blood ([2]; 1 h) [% ID/g] | Organ distribution: Brain ([2]; 1 h) [% ID/g] | Organ distribution: Heart ([2]; 1 h) [% ID/g] | Organ distribution: Kidney (first Kidney column) ([2]; 1 h) [% ID/g] | Organ distribution: Kidney (second Kidney column) ([2]; 1 h) [% ID/g] | Organ distribution: Liver ([2]; 1 h) [% ID/g] | Organ distribution: Lung ([2]; 1 h) [% ID/g] | Organ distribution: Muscle ([2]; 1 h) [% ID/g] | Organ distribution: Small Intestine ([2]; 1 h) [% ID/g] | Organ distribution: Spleen ([2]; 1 h) [% ID/g] | Organ distribution: Tail ([2]; 1 h) [% ID/g] | Organ distribution: Tumor ([2]; 1 h) [% ID/g] | Organ distribution: Blood ([2]; 4 h) [% ID/g] | Organ distribution: Brain ([2]; 4 h) [% ID/g] | Organ distribution: Heart ([2]; 4 h) [% ID/g] | Organ distribution: Kidney (first Kidney column) ([2]; 4 h) [% ID/g] | Organ distribution: Kidney (second Kidney column) ([2]; 4 h) [% ID/g] | Organ distribution: Liver ([2]; 4 h) [% ID/g] | other results
1 | O=C([O-])CN1CCN(CC(=O)[O-])CCN(CC(=O)NCC2CCC(C(=O)N[C@@H](Cc3ccc4ccccc4c3)C(=O)NCCCC[C@H](NC(=O)N[C@@H](CCC(=O)O)C(=O)O)C(=O)O)CC2)CCN(CC(=O)[O-])CC1.[177Lu+3] (some centres unmarked) [177Lu-PSMA-617, reference compound] | 4,09228993 % IA/10^5 cells | 2,63598315 % IA/10^5 cells | 0.31 | 0.02 | 0.17 | 143.55 | 146.77 | 4.73 | 0.61 | 0.07 | 0.18 | 5.86 | 3.46 | 19.20 | 0.03 | 0.01 | 0.03 | 5.52 | 5.50 | 1.57 | Organ distribution: Lung ([2]; 4 h): 0.08 % ID/g; Organ distribution: Muscle ([2]; 4 h): 0.01 % ID/g; Organ distribution: Small Intestine ([2]; 4 h): 0.04 % ID/g; Organ distribution: Spleen ([2]; 4 h): 1.20 % ID/g; Organ distribution: Tail ([2]; 4 h): 0.78 % ID/g; Organ distribution: Tumor ([2]; 4 h): 14.77 % ID/g
2 | O=C([O-])CN1CCN(CC(=O)[O-])CCN(CC(=O)N2CCN(c3cccc(C4OCC5OC(OC6C(CO)OC(OC7C(CO)OC(Oc8ccc(CCC(=O)NCC9CCC(C(=O)NC(Cc%10ccc%11ccccc%11c%10)C(=O)NCCCCC(NC(=O)NC(CCC(=O)O)C(=O)O)C(=O)O)CC9)cc8)C(O)C7O)C(O)C6O)C(O)C(O)C5O4)c3)CC2)CCN(CC(=O)[O-])CC1.[177Lu+3] (centres unmarked) [177Lu-PSMA-MT] | 4,86794251 % IA/10^5 cells | 2,14459836 % IA/10^5 cells | 0.35 | 0.02 | 0.16 | 144.27 | 142.04 | 2.07 | 0.56 | 0.08 | 0.15 | 3.83 | 4.61 | 12.83 | 0.04 | 0.01 | 0.04 | 20.59 | 19.45 | 4.58 | Organ distribution: Lung ([2]; 4 h): 0.10 % ID/g; Organ distribution: Muscle ([2]; 4 h): 0.02 % ID/g; Organ distribution: Small Intestine ([2]; 4 h): 0.04 % ID/g; Organ distribution: Spleen ([2]; 4 h): 3.94 % ID/g; Organ distribution: Tail ([2]; 4 h): 0.50 % ID/g; Organ distribution: Tumor ([2]; 4 h): 9.18 % ID/g
3 | O=C([O-])CC[C@H](NC(=O)N[C@@H](CCCCNC(=O)[C@H](Cc1ccc2ccccc2c1)NC(=O)C1CCC(CNC(=O)CN2CCN(CC(=O)[O-])CCN(CC(=O)[O-])CCN(CC(=O)[O-])CC2)CC1)C(=O)[O-])C(=O)[O-].[225Ac].[H+].[H+].[H+] (some centres unmarked) [225Ac-PSMA-617] | – | – | – | – | – | – | – | – | – | – | – | – | – | – | – | – | – | – | – | – | PSA value ([3]; both patients): below the detectability limit; Clinical response ([3]; two patients with extremely advanced and end-stage disease): complete remission
4 | O=C(O)CCC(NC(=O)NC(CCCCNC(=O)C(Cc1ccc2ccccc2c1)NC(=O)C1CCC(CNC(=O)CN2CCN(CC(=O)O)CCN(CC(=O)O)CCN(CC(=O)O)CC2)CC1)C(=O)O)C(=O)O (centres unmarked) [PSMA-617, 2-[3-(1-Carboxy-5-{3-naphthalen-2-yl-2-[(4-{[2-(4,7,10-tris-carboxymethyl-1,4,7,10-tetraaza-cyclododec-1-yl)-acetylamino]-methyl}-cyclohexanecarbonyl) -amino]-propionylamino}-pentyl)-ureido]-pentanedioic acid, reference compound] | – | – | – | – | – | – | – | – | – | – | – | – | – | – | – | – | – | – | – | – | IC50 [4]: ~20 nM
5 | O=C(O)CCC(NC(=O)NC(CCCCNC(=O)C(Cc1ccc2ccccc2c1)NC(=O)C1CCC(CNC(=O)CCc2ccc(OC3OC(CO)C(OC4OC(CO)C(OC5OC6COC(c7cccc(N8CCN(C(=O)CN9CCN(CC(=O)O)CCN(CC(=O)O)CCN(CC(=O)O)CC9)CC8)c7)OC6C(O)C5O)C(O)C4O)C(O)C3O)cc2)CC1)C(=O)O)C(=O)O (centres unmarked) [PSMA-MT, 1-(4-(3-oxo-3-PSMA-propyl)phenyl)-4″,6″-(3-(4-DOTA-piperazine)benzylidene)maltotriose] | – | – | – | – | – | – | – | – | – | – | – | – | – | – | – | – | – | – | – | – | Basic cleavability of the linker by α-amylases [5]: demonstrated; Turnover of PSMA-MT on digestion with α-Amylase (original mass peak disappeared) ([6]; 1 h at RT, 1 U/μl α-Amylase, 1 mM PSMA-MT, MALDI-TOF): complete turnover; Alpha-amylase cleavage site whose predicted fragments were found ([6]; MALDI-TOF after digest, fragments for cleavage site B could not be detected): cleavage site A; IC50 [4]: ~39 nM
